Experimental data reported in US20180271792A1, “ORAL DELIVERY OF PHYSIOLOGICALLY ACTIVE SUBSTANCES” (Rezolute, Inc., priority 2017, published 2018).

Legend:
blood glucose = assay: Blood glucose in rats after oral gavage or subcutaneous dosing; type: in vivo; conditions: subcutaneous 0.3 IU/kg
Description: The peptide and oil for formulations 44-47 were sonicated until they appeared cloudy but homogenous. Then the remaining ingredients were added to each sample. The samples were sonicated again until they appeared cloudy but homogenous. The samples were stored overnight at room temperature. Normal SD Rats (5 rats/group) were fasted overnight before being dosed by oral gavage at insulin equivalent dosage of 75 IU/kg. For comparison, a fifth group (sample 48) was dosed with Humulin R (recombinant human insulin) subcutaneously at 0.3 IU/kg. Blood was collected at predose (−30 min) and post dose (10 min, 30 min, 1 h, 1.5 h, 2 h, 3 h, 4 h, 6 h, 8 h) for glucose measurements by a glucometer. […]

[1] = cited from earlier work
[2] = rat, in vivo, po
Description: In forming samples 12-15, the insulin-PEG (or insulin-PEG inclusion complex) and the fish oil were sonicated for 30 minutes. The DPC was then added to the sonicated mixture and the mixture was briefly swirled or vortexed to mix. The resulting mixtures were kept at room temperature for 1 hour. The samples were administered via an oral gavage to rats at 150 IU/kg (for 5 kDa PEG) and 75 IU/kg (for 2 kDa PEG). At specified intervals, blood was collected from the jugular vein and analyzed for glucose values.

Description for Caco-2 monolayer: In order to estimate the membrane permeability of various formulations, a Caco-2 permeability study was performed. The compounds tested were insulin-PEG (5 kDa), insulin-PEG (5 kDa) inclusion complex, insulin-PEG (5 kDa) inclusion complex and DPC, insulin-PEG (2 kDa), and the insulin-PEG (2 kDa) inclusion complex. All compounds were dissolved in media at a concentration of 1 mg insulin/mL media and added to a Caco-2 monolayer.

## 48: Humulin R (recombinant human insulin) dosed subcutaneously at 0.3 IU/kg [Sample 48]
Blood glucose; Example 14
  time glucose back at baseline: 3 h

## GLP-1: a 31 amino acid peptide, an incretin, a hormone that can decrease blood glucose levels
[1]
  in vivo half-life: less than two

## Sample 17: 0.015 mg/kg insulin-PEG (2 kDa), administered subcutaneously
Blood glucose; Example 10
  time glucose back to baseline (~60 mg/dL): about 4 hours

## Sample 18: 0.011 mg/kg insulin, administered subcutaneously
Blood glucose; Example 10
  time glucose back to baseline (~60 mg/dL): about 3 hours

## Sample 19: 0.011 mg/kg insulin, administered subcutaneously
Blood glucose; Example 11
  time glucose back to baseline (~60 mg/dL): about 3 hours
Blood glucose; Example 11, all rats
  reduction in blood glucose to, within 30 minutes: 20 mg/dL

## insulin-PEG (2 kDa): human insulin conjugated with a 2 kDa PEG
Caco-2 monolayer
  % of the insulin-PEG permeating through the cell layer after 3 hours: 1%
[2]
  serum insulin-PEG / absorption: better absorbed than 5 kDa PEG
